The record followed here is patent publication US8455475B2 (Gruenenthal GmbH, priority 2009, dated 2013).

The target of the assay is T1, rat B1R (bradykinin receptor 1) (Rattus norvegicus, UniProt P97583).
T1 construct: expressed in transfected cells; host or cells: CHO K1 cells
T1 sequence (P97583 1-337): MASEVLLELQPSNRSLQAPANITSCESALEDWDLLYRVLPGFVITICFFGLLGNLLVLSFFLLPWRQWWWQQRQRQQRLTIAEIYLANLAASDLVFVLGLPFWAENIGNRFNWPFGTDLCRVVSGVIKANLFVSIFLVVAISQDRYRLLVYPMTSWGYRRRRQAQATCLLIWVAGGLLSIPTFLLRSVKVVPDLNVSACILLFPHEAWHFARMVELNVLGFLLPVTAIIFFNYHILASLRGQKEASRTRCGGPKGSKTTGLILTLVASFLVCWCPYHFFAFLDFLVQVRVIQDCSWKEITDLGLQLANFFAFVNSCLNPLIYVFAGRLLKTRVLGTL
Nature of the assay: FLIPR Ca2+ assay (Fluo-4) on CHO K1 cells stably transfected with the B1R gene of the rat (rB1R cells): % inhibition at 10 μM / IC50, agonist Des-Arg9-bradykinin. The settings on record: CHO-K1, rat B1R. The class given is cell-based. Put shortly:
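Cells were Fluo-4-loaded, then test compound (10 μM, or a concentration series for IC50) was preincubated 10–20 min before agonist challenge at EC80: Lys-Des-Arg9-bradykinin for hB1R, Des-Arg9-bradykinin for rB1R. Peak Ca2+ fluorescence (ex 488/em 540 nm) gave % inhibition versus maximal achievable inhibition.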
Take `CN(C1CCc2ccc(C(=O)N3CCC4(CC3)CCN(c3ccncc3)CC4)cc21)S(=O)(=O)Cc1cccc(Cl)c1` (centres unmarked) [IND_CC-351, 1-(3-Chlorophenyl)-N-methyl-N-[6-(9-pyridin-4-yl-3,9-diazaspiro[5.5]undecane-3-carbonyl)-2,3-dihydro-1H-inden-1-yl]-methanesulfonic acid amide]: the inhibition at 10 µM is 99%.
On to `O=C(c1ccc2c(c1)C(NS(=O)(=O)Cc1cccc(Cl)c1)CC2)N1CCC2(CC1)CCN(c1ccncc1)CC2` (centres unmarked) [IND_CC-352, 1-(3-Chlorophenyl)-N-[6-(9-pyridin-4-yl-3,9-diazaspiro[5.5]undecane-3-carbonyl)-2,3-dihydro-1H-inden-1-yl]-methanesulfonic acid amide], for which the inhibition at 10 µM came out at 98%.
The result for `O=C(c1ccc2c(c1)C(NS(=O)(=O)Cc1cccc(Cl)c1)CC2)N1CCC2(CC1)CCN(c1ccncc1)C2` (centres unmarked) [IND_CC-353, 1-(3-Chlorophenyl)-N-[6-(2-pyridin-4-yl-2,8-diazaspiro[4.5]decane-8-carbonyl)-2,3-dihydro-1H-inden-1-yl]-methanesulfonic acid amide] reads 97%; that for `Cc1cc(F)cc(C)c1S(=O)(=O)N(C)C1CCc2ccc(C(=O)N3CCC4(CC3)CCN(c3ccncc3)CC4)cc21` (centres unmarked) [IND_CC-354, 4-Fluoro-N,2,6-trimethyl-N-[6-(9-pyridin-4-yl-3,9-diazaspiro[5.5]undecane-3-carbonyl)-2,3-dihydro-1H-inden-1-yl]-benzenesulfonic acid amide], 84%.
The result for `Cc1cc(F)cc(C)c1S(=O)(=O)NC1CCc2ccc(C(=O)N3CCC4(CC3)CCN(c3ccncc3)CC4)cc21` (centres unmarked) [IND_CC-355, 4-Fluoro-2,6-dimethyl-N-[6-(9-pyridin-4-yl-3,9-diazaspiro[5.5]undecane-3-carbonyl)-2,3-dihydro-1H-inden-1-yl]-benzenesulfonic acid amide] reads 65%.
As to `Cc1cc(F)cc(C)c1S(=O)(=O)NC1CCc2ccc(C(=O)N3CCC4(CC3)CCN(c3ccncc3)C4)cc21` (centres unmarked) [IND_CC-356, 4-Fluoro-2,6-dimethyl-N-[6-(2-pyridin-4-yl-2,8-diazaspiro[4.5]decane-8-carbonyl)-2,3-dihydro-1H-inden-1-yl]-benzenesulfonic acid amide], the inhibition at 10 µM is 69%.
Turning to `O=C(c1ccc2c(c1)C(NS(=O)(=O)c1cc(Cl)ccc1Cl)CC2)N1CCC2(CCN(c3ccncc3)CC2)C1` (centres unmarked) [IND_CC-357, 2,5-Dichloro-N-[6-(8-pyridin-4-yl-2,8-diazaspiro[4.5]decane-2-carbonyl)-2,3-dihydro-1H-inden-1-yl]-benzenesulfonic acid amide], the inhibition at 10 µM came out at 95%.
For `O=C(c1ccc2c(c1)C(NS(=O)(=O)Cc1ccccc1F)CC2)N1CCC2(CCN(c3ccncc3)CC2)C1` (centres unmarked) [IND_CC-359, 1-(2-Fluorophenyl)-N-[6-(8-pyridin-4-yl-2,8-diazaspiro[4.5]decane-2-carbonyl)-2,3-dihydro-1H-inden-1-yl]-methanesulfonic acid amide], the inhibition at 10 µM was 104%.
`O=C(c1ccc2c(c1)C(NS(=O)(=O)Cc1cccc(Cl)c1)CC2)N1CCC2(CCN(c3ccncc3)CC2)C1` (centres unmarked) [IND_CC-360, 1-(3-Chlorophenyl)-N-[6-(8-pyridin-4-yl-2,8-diazaspiro[4.5]decane-2-carbonyl)-2,3-dihydro-1H-inden-1-yl]-methanesulfonic acid amide]: the inhibition at 10 µM is 69%.
Turning to `Cc1cc(F)cc(C)c1S(=O)(=O)NC1CCc2ccc(C(=O)N3CCC4(CCN(c5ccncc5)CC4)C3)cc21` (centres unmarked) [IND_CC-361, 4-Fluoro-2,6-dimethyl-N-[6-(8-pyridin-4-yl-2,8-diazaspiro[4.5]decane-2-carbonyl)-2,3-dihydro-1H-inden-1-yl]-benzenesulfonic acid amide], the inhibition at 10 µM was 99%.
In the case of `CN(C1CCc2ccc(C(=O)N3CCC4(CC3)CCN(c3ccncc3)CC4)cc21)S(=O)(=O)c1cc(Cl)c(Cl)cc1Cl` (centres unmarked) [IND_CC-362, 2,4,5-Trichloro-N-methyl-N-[6-(9-pyridin-4-yl-3,9-diazaspiro[5.5]undecane-3-carbonyl)-2,3-dihydro-1H-inden-1-yl]-benzenesulfonic acid amide], the inhibition at 10 µM was 81%.
With `O=C(c1ccc2c(c1)C(NS(=O)(=O)c1cc(Cl)c(Cl)cc1Cl)CC2)N1CCC2(CC1)CCN(c1ccncc1)C2` (centres unmarked) [IND_CC-363, 2,4,5-Trichloro-N-[6-(2-pyridin-4-yl-2,8-diazaspiro[4.5]decane-8-carbonyl)-2,3-dihydro-1H-inden-1-yl]-benzenesulfonic acid amide], the inhibition at 10 µM came to 74%.
To `O=C(NC1CCc2ccc(C(=O)N3CCC4(CC3)CCN(c3ccncc3)CC4)cc21)C1CCCCC1` (centres unmarked) [IND_CC-364, N-[6-(9-Pyridin-4-yl-3,9-diazaspiro[5.5]undecane-3-carbonyl)-2,3-dihydro-1H-inden-1-yl]-cyclohexanecarboxylic acid amide] belongs 103%.
To `CN(C(=O)C1CCCCC1)C1CCc2ccc(C(=O)N3CCC4(CC3)CCN(c3ccncc3)CC4)cc21` (centres unmarked) [IND_CC-365, N-Methyl-N-[6-(9-pyridin-4-yl-3,9-diazaspiro[5.5]undecane-3-carbonyl)-2,3-dihydro-1H-inden-1-yl]-cyclohexanecarboxylic acid amide] belongs 105%; to `O=C(NC1CCc2ccc(C(=O)N3CCC4(CC3)CCN(c3ccncc3)C4)cc21)C1CCCCC1` (centres unmarked) [IND_CC-366, N-[6-(2-Pyridin-4-yl-2,8-diazaspiro[4.5]decane-8-carbonyl)-2,3-dihydro-1H-inden-1-yl]-cyclohexanecarboxylic acid amide], 104%.
The result for `O=C(NC1CCc2ccc(C(=O)N3CCC4(CCN(c5ccncc5)CC4)C3)cc21)C1CCCCC1` (centres unmarked) [IND_CC-367, N-[6-(8-Pyridin-4-yl-2,8-diazaspiro[4.5]decane-2-carbonyl)-2,3-dihydro-1H-inden-1-yl]-cyclohexanecarboxylic acid amide] reads 104%; that for `O=C(NC1CCc2ccc(C(=O)N3CCC4(CC3)CCN(c3ccncc3)CC4)cc21)C1CC1` (centres unmarked) [IND_CC-368, N-[6-(9-Pyridin-4-yl-3,9-diazaspiro[5.5]undecane-3-carbonyl)-2,3-dihydro-1H-inden-1-yl]-cyclopropanecarboxylic acid amide], 87%.
On to `CN(C(=O)C1CC1)C1CCc2ccc(C(=O)N3CCC4(CC3)CCN(c3ccncc3)CC4)cc21` (centres unmarked) [IND_CC-369, N-Methyl-N-[6-(9-pyridin-4-yl-3,9-diazaspiro[5.5]undecane-3-carbonyl)-2,3-dihydro-1H-inden-1-yl]-cyclopropanecarboxylic acid amide], for which the inhibition at 10 µM stood at 74%.
To `O=C(NC1CCc2ccc(C(=O)N3CCC4(CCN(c5ccncc5)CC4)C3)cc21)C1CC1` (centres unmarked) [IND_CC-370, N-[6-(8-Pyridin-4-yl-2,8-diazaspiro[4.5]decane-2-carbonyl)-2,3-dihydro-1H-inden-1-yl]-cyclopropanecarboxylic acid amide] belongs 100%.
Turning to `CC(C)(C)CC(=O)NC1CCc2ccc(C(=O)N3CCC4(CC3)CCN(c3ccncc3)CC4)cc21` (centres unmarked) [IND_CC-371, 3,3-Dimethyl-N-[6-(9-pyridin-4-yl-3,9-diazaspiro[5.5]undecane-3-carbonyl)-2,3-dihydro-1H-inden-1-yl]-butyramide], the inhibition at 10 µM came out at 104%.
For the compound `CN(C(=O)CC(C)(C)C)C1CCc2ccc(C(=O)N3CCC4(CC3)CCN(c3ccncc3)CC4)cc21` (centres unmarked) [IND_CC-372, N,3,3-Trimethyl-N-[6-(9-pyridin-4-yl-3,9-diazaspiro[5.5]undecane-3-carbonyl)-2,3-dihydro-1H-inden-1-yl]-butyramide], the inhibition at 10 µM worked out at 105%.
Regarding `CC(C)(C)CC(=O)NC1CCc2ccc(C(=O)N3CCC4(CC3)CCN(c3ccncc3)C4)cc21` (centres unmarked) [IND_CC-373, 3,3-Dimethyl-N-[6-(2-pyridin-4-yl-2,8-diazaspiro[4.5]decane-8-carbonyl)-2,3-dihydro-1H-inden-1-yl]-butyramide], the inhibition at 10 µM worked out at 102%.
Regarding `CC(C)(C)CC(=O)NC1CCc2ccc(C(=O)N3CCC4(CCN(c5ccncc5)CC4)C3)cc21` (centres unmarked) [IND_CC-374, 3,3-Dimethyl-N-[6-(8-pyridin-4-yl-2,8-diazaspiro[4.5]decane-2-carbonyl)-2,3-dihydro-1H-inden-1-yl]-butyramide], the inhibition at 10 µM stood at 103%.
For `CC(=O)NC1CCc2ccc(C(=O)N3CCC4(CCN(c5ccncc5)CC4)C3)cc21` (centres unmarked) [IND_CC-375, N-[6-(8-Pyridin-4-yl-2,8-diazaspiro[4.5]decane-2-carbonyl)-2,3-dihydro-1H-inden-1-yl]-acetamide], the inhibition at 10 µM was found to be 59%.
The result for `O=C(NC1CCc2ccc(C(=O)N3CCC4(CC3)CCN(c3ccncc3)CC4)cc21)c1c(F)cccc1C(F)(F)F` (centres unmarked) [IND_CC-376, 2-Fluoro-N-[6-(9-pyridin-4-yl-3,9-diazaspiro[5.5]undecane-3-carbonyl)-2,3-dihydro-1H-inden-1-yl]-6-(trifluoromethyl)-benzamide] reads 102%; that for `O=C(NC1CCc2ccc(C(=O)N3CCC4(CC3)CCN(c3ccncc3)C4)cc21)c1c(F)cccc1C(F)(F)F` (centres unmarked) [IND_CC-377, 2-Fluoro-N-[6-(2-pyridin-4-yl-2,8-diazaspiro[4.5]decane-8-carbonyl)-2,3-dihydro-1H-inden-1-yl]-6-(trifluoromethyl)-benzamide], 104%.

The term inhibition denotes the change of the read-out against control, counted positive when it falls.
